Data on 22 molecules can be found in patent US10047051B2, “Substituted pyridines and method of use” (AbbVie S.á{acute over (.)}r.l., priority 2015, dated 2018).

In one assay the target is T1, CFTR ΔF508 mutant (Homo sapiens, UniProt P13569, DEL508-508).
T1 construct: expressed in transfected cells; host or cells: CFBE41o- cells, adenoviral transduction
Nature of the assay: YFP-halide influx assay for the CFTR-ΔF508 mutation (CFBE41o- cells). In kind it is cell-based. As to conditions: forskolin 10.67 μM; for EC50: from (1−F/F0) vs concentration plot. Put shortly:
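EC50 derived from plotting 1−F/F0 (fluorescence 36 s after iodide injection over pre-injection value) against compound concentration. Cells: CFBE41o- transduced with ΔF508-CFTR and YFP quench reporter, corrected 24 h at 27° C or by a CFTR modulator at 37° C.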

For another assay, the target named is T2, CFTR G551D mutant (Homo sapiens, UniProt P13569, G551D).
T2 construct: expressed in transfected cells; host or cells: HEK293 cells, reverse transfection with plasmids
T2 sequence (P13569 whole entry G551D): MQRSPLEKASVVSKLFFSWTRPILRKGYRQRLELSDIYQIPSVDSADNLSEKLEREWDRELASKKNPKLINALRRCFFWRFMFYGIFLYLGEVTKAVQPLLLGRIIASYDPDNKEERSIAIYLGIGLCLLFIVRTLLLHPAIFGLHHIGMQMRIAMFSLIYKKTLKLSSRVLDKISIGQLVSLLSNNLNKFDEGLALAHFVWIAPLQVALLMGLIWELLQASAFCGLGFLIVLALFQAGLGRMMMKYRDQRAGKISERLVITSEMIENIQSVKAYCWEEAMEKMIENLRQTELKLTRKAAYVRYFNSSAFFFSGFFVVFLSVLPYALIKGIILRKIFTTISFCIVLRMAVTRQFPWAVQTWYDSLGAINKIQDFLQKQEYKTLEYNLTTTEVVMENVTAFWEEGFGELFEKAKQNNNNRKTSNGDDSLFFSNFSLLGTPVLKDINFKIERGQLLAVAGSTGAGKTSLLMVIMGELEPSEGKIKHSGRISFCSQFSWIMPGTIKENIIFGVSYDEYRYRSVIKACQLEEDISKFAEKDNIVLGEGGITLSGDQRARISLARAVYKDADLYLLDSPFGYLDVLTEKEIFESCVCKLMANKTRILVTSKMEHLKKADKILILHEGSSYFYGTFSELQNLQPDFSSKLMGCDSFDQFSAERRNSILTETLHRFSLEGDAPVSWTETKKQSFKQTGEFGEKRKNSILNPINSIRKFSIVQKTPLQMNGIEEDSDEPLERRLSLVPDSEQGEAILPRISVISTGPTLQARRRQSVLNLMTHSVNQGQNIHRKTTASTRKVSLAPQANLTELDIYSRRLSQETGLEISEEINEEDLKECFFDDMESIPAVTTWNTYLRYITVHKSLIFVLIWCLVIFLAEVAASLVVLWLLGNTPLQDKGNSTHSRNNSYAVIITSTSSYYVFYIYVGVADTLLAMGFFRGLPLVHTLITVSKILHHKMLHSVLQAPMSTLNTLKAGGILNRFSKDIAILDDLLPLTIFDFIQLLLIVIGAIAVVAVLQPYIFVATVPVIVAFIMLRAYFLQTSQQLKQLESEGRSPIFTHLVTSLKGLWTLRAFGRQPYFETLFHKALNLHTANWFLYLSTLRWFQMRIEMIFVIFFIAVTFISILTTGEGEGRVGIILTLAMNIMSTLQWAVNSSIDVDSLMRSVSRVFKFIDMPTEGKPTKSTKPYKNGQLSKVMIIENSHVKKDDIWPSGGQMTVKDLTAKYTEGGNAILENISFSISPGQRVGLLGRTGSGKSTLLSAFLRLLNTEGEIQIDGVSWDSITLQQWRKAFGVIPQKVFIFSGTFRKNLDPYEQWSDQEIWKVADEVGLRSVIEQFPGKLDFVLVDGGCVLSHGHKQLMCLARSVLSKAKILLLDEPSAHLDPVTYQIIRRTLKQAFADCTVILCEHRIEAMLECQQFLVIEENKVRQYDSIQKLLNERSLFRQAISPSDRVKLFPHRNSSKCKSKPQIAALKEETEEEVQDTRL
Nature of the assay: YFP-halide influx assay for the CFTR-G551D mutation (HEK293 cells). The format is cell-based. The following applies: forskolin 10.67 μM. In a few lines:
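Channel opening read as I⁻-driven quenching of a YFP H148Q/I152L/F47L reporter over 7 s post-injection, expressed as 1−F/F0 and fitted against concentration for EC50. Cells were HEK293 co-transfected at seeding with G551D CFTR plus reporter, then grown 24 h at 37 °C, 5% CO2.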

T1 sequence (P13569 with tags, fused parts or gaps DEL508-508): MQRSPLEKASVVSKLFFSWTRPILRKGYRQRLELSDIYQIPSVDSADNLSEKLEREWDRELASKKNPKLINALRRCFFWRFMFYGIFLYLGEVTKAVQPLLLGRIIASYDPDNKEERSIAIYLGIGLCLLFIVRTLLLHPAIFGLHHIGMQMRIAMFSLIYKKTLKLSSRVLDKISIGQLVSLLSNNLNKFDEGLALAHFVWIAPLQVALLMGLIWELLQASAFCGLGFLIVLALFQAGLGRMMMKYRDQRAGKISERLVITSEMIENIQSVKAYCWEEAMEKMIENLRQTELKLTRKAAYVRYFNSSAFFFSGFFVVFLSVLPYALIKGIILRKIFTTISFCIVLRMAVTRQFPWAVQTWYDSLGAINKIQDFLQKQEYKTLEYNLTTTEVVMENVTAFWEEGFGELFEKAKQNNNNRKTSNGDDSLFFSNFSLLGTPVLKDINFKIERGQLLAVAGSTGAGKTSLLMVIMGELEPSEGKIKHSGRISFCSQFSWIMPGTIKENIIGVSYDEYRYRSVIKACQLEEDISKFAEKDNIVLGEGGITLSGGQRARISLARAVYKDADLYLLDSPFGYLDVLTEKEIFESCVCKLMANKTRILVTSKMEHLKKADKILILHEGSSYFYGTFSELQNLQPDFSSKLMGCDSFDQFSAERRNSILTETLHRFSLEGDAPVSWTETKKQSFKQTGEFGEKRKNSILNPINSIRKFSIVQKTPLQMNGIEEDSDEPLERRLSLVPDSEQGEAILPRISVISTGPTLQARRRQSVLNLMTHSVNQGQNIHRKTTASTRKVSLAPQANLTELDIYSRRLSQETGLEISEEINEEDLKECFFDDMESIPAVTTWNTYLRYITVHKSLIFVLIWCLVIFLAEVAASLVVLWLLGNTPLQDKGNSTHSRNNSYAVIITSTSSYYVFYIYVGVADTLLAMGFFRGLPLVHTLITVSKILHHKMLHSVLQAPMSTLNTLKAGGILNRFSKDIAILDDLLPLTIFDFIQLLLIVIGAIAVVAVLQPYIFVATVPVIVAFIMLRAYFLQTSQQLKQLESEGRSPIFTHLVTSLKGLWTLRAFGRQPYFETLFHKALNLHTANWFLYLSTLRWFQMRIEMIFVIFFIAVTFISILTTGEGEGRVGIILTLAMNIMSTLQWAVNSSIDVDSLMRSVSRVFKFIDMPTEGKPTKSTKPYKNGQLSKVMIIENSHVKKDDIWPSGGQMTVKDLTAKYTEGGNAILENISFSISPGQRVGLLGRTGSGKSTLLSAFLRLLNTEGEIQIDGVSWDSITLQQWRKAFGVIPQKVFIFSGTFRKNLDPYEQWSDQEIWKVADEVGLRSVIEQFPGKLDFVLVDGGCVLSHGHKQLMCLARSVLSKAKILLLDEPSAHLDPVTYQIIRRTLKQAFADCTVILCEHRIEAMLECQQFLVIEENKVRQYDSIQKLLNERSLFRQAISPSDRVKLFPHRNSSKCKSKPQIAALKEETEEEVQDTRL

For orientation: EC50 means the concentration needed to bring the measured effect to its halfway point. On to `CC(C)NC(=O)CNC(=O)c1ncc(S(=O)(=O)c2ccc(C(F)(F)F)cc2F)cc1N` [Compound 113, 3-amino-5-{[2-fluoro-4-(trifluoromethyl)phenyl]sulfonyl}-N-[2-oxo-2-(propan-2-ylamino)ethyl]pyridine-2-carboxamide], for which, at CFTR ΔF508 mutant, the “% Activation” value was 101.9% and the EC50 was 10.4 nM. Further, at CFTR G551D mutant, the “% Activation” value came to 41.1% and the EC50 came out at 297 nM.
On the same counts, the results for `Nc1cc(S(=O)(=O)c2ccc(C(F)(F)F)cc2F)cnc1C(=O)N1CC(C(F)(F)F)C1` [Compound 160, (3-amino-5-{[2-fluoro-4-(trifluoromethyl)phenyl]sulfonyl}pyridin-2-yl)[3-(trifluoromethyl)azetidin-1-yl]methanone] are 113.9%, 23.6 nM, 52.7% and 566 nM.
Regarding `C[C@@H]1CCCN1S(=O)(=O)c1cnc(C(=O)NCC(O)C(F)(F)F)c(N)c1` (stereo partly drawn) [Compound 179, 3-amino-5-{[(2R)-2-methylpyrrolidin-1-yl]sulfonyl}-N-(3,3,3-trifluoro-2-hydroxypropyl)pyridine-2-carboxamide], at CFTR ΔF508 mutant, the “% Activation” value was found to be 100.4% and the EC50 was determined as 27.7 nM. Further, at CFTR G551D mutant, the “% Activation” value was 52.6% and the response was half-maximal at 1350 nM (EC50).
For `Nc1cc(S(=O)(=O)c2ccc(OC(F)(F)F)cc2)cnc1C(=O)N1CCC1` [Compound 65, (3-amino-5-{[4-(trifluoromethoxy)phenyl]sulfonyl}pyridin-2-yl)(azetidin-1-yl)methanone] the same measures were 119.0%, 41.4 nM, 67.8% and 1160 nM.
On the same counts, the results for `Nc1cc(S(=O)(=O)c2ccc(OC(F)(F)F)cc2)cnc1C(=O)NC1CCOC1` (stereo not shown) [Compound 127, 3-amino-N-(tetrahydrofuran-3-yl)-5-{[4-(trifluoromethoxy)phenyl]sulfonyl}pyridine-2-carboxamide] are 107.0%, 82.9 nM, 61.2% and 1880 nM.
For `COCCC(C)(O)CNC(=O)c1ncc(S(=O)(=O)c2ccc(C(F)(F)F)cc2)cc1N` (stereo not shown) [Compound 167, 3-amino-N-(2-hydroxy-4-methoxy-2-methylbutyl)-5-{[4-(trifluoromethyl)phenyl]sulfonyl}pyridine-2-carboxamide] the same measures were 98.3%, 41.7 nM, 71.5% and 1550 nM.
In the case of `CC(C)(CO)NC(=O)c1ncc(S(=O)(=O)c2ccc(C(F)(F)F)cc2)cc1N` [Compound 227, 3-amino-N-(1-hydroxy-2-methylpropan-2-yl)-5-{[4-(trifluoromethyl)phenyl]sulfonyl}pyridine-2-carboxamide], on CFTR ΔF508 mutant, the “% Activation” value stood at 81.0% and the EC50 was over 667 nM. Moreover, at CFTR G551D mutant, the “% Activation” value was 28.1% and the EC50 was over 10000 nM.
On the same counts, the results for `Cc1ccc(S(=O)(=O)c2cnc(C(=O)NCC(O)C(F)(F)F)c(N)c2)cc1` (stereo not shown) [Compound 245, 3-amino-5-[(4-methylphenyl)sulfonyl]-N-(3,3,3-trifluoro-2-hydroxypropyl)pyridine-2-carboxamide] are 114.0%, 5.6 nM, 80.8% and 395 nM.
For `Nc1cc(S(=O)(=O)N2CC(F)(F)C2)cnc1C(=O)NCC(O)C(F)(F)F` (stereo not shown) [Compound 97, 3-amino-5-[(3,3-difluoroazetidin-1-yl)sulfonyl]-N-(3,3,3-trifluoro-2-hydroxypropyl)pyridine-2-carboxamide] the same measures were 92.9%, 102 nM, 23.8% and over 10000 nM.
For `C[C@H](O)CNC(=O)c1nc(-c2ccc(F)cc2)c(S(=O)(=O)C2CCCC2)cc1N` [Compound 261, 3-amino-5-(cyclopentanesulfonyl)-6-(4-fluorophenyl)-N-[(2S)-2-hydroxypropyl]pyridine-2-carboxamide] the same measures were 87.3%, 162 nM, 16.6% and over 1000 nM.
For `Nc1cc(S(=O)(=O)CC2CCCO2)cnc1C(=O)NCC(O)C(F)(F)F` (stereo not shown) [Compound 238, 3-amino-5-[(tetrahydrofuran-2-ylmethyl)sulfonyl]-N-(3,3,3-trifluoro-2-hydroxypropyl)pyridine-2-carboxamide], on CFTR ΔF508 mutant, the “% Activation” value worked out at 53.7% and the response was half-maximal at 538 nM (EC50). Also, at CFTR G551D mutant, the “% Activation” value came to 4.8% and the EC50 is over 10000 nM.
Turning to `C[C@H]1CCCN1S(=O)(=O)c1cnc(C(=O)NCc2nccc(=O)[nH]2)c(N)c1` [Compound 282, 3-amino-5-{[(2S)-2-methylpyrrolidin-1-yl]sulfonyl}-N-[(6-oxo-1,6-dihydropyrimidin-2-yl)methyl]pyridine-2-carboxamide], at CFTR ΔF508 mutant, the “% Activation” value turned out to be 47.0% and the EC50 was over 667 nM. Moreover, at CFTR G551D mutant, the “% Activation” value turned out to be 1.8% and the EC50 was over 10000 nM.
For `Nc1cc(S(=O)(=O)c2ccc(C(F)(F)F)cc2F)cnc1C(=O)NCC(O)COCC(F)(F)F` (stereo not shown) [Compound 213, 3-amino-5-{[2-fluoro-4-(trifluoromethyl)phenyl]sulfonyl}-N-[2-hydroxy-3-(2,2,2-trifluoroethoxy)propyl]pyridine-2-carboxamide] the same measures were 115.3%, 6 nM, 71.0% and 414 nM.
For `COCCOCC(O)CNC(=O)c1ncc(S(=O)(=O)c2ccc(C(F)(F)F)cc2)cc1N` (stereo not shown) [Compound 221, 3-amino-N-[2-hydroxy-3-(2-methoxyethoxy)propyl]-5-{[4-(trifluoromethyl)phenyl]sulfonyl}pyridine-2-carboxamide] the same measures were 101.7%, 54.5 nM, 55.6% and 1840 nM.
For the molecule `C[C@H](O)CNC(=O)c1nc(C2CC2)c(S(=O)(=O)c2ccc(F)cc2)cc1N` [Compound 274, 3-amino-6-cyclopropyl-5-[(4-fluorophenyl)sulfonyl]-N-[(2S)-2-hydroxypropyl]pyridine-2-carboxamide], on CFTR ΔF508 mutant, the “% Activation” value was found to be 111.0% and the EC50 came to 6.9 nM. At CFTR G551D mutant, the “% Activation” value was found to be 69.5% and the EC50 is over 3330 nM.
For `CN(Cc1ccc(F)cc1)S(=O)(=O)c1cnc(C(=O)NCC(O)C(F)(F)F)c(N)c1` (stereo not shown) [Compound 187, 3-amino-5-[(4-fluorobenzyl)(methyl)sulfamoyl]-N-(3,3,3-trifluoro-2-hydroxypropyl)pyridine-2-carboxamide] the same measures were 99.1%, 2.8 nM, 71.8% and 705 nM.
For `Nc1cc(S(=O)(=O)N2CCOc3ccccc32)cnc1C(=O)NCC(O)C(F)(F)F` (stereo not shown) [Compound 109, 3-amino-5-(2,3-dihydro-4H-1,4-benzoxazin-4-ylsulfonyl)-N-(3,3,3-trifluoro-2-hydroxypropyl)pyridine-2-carboxamide] the same measures were 104.0%, 3.6 nM, 62.6% and 296 nM.
For `CN(C1CC1)S(=O)(=O)c1cnc(C(=O)NCC(O)C(F)(F)F)c(N)c1` (stereo not shown) [Compound 94, 3-amino-5-[cyclopropyl(methyl)sulfamoyl]-N-(3,3,3-trifluoro-2-hydroxypropyl)pyridine-2-carboxamide] the same measures were 102.0%, 22.2 nM, 43.4% and 1140 nM.
As to `CCC(CO)NC(=O)c1ncc(S(=O)(=O)c2ccc(OC(F)(F)F)cc2)cc1N` (stereo not shown) [Compound 12, 3-amino-N-(1-hydroxybutan-2-yl)-5-{[4-(trifluoromethoxy)phenyl]sulfonyl}pyridine-2-carboxamide], the “% Activation” value worked out at 114.5% at CFTR ΔF508 mutant and 43.8% on CFTR G551D mutant. Further, the values for the EC50 on CFTR ΔF508 mutant and on CFTR G551D mutant were 36.1 nM and 692 nM, respectively.
On the same counts, the results for `Nc1cc(S(=O)(=O)c2ccc(C(F)(F)F)cc2)cnc1C(=O)N[C@@H]1COCC[C@@H]1O` (racemic) [Compound 216, rac-3-amino-N-[(3R,4S)-4-hydroxytetrahydro-2H-pyran-3-yl]-5-{[4-(trifluoromethyl)phenyl]sulfonyl}pyridine-2-carboxamide] are 98.6%, 47.8%, 47.1 nM and 1140 nM.
On the same counts, the results for `Nc1cc(S(=O)(=O)c2ccc(OC(F)(F)F)cc2)cnc1C(=O)NC[C@@H](O)COCC1CC1` [Compound 251, 3-amino-N-[(2R)-3-(cyclopropylmethoxy)-2-hydroxypropyl]-5-{[4-(trifluoromethoxy)phenyl]sulfonyl}pyridine-2-carboxamide] are 110.0%, 93.3%, 16.3 nM and 919 nM.
On the same counts, the results for `CC(C)C(CO)NC(=O)c1ncc(S(=O)(=O)c2ccc(OC(F)(F)F)cc2)cc1N` (stereo not shown) [Compound 13, 3-amino-N-(1-hydroxy-3-methylbutan-2-yl)-5-{[4-(trifluoromethoxy)phenyl]sulfonyl}pyridine-2-carboxamide] are 101.0%, 21.3%, 39.9 nM and over 10000 nM.
